Results published in ChEMBL document CHEMBL1130513, “New hepatoprotective saponins, bupleurosides III, VI, IX, and XIII, from Chinese Bupleuri Radix: Structure-requirements for the cytoprotective activity in primary cultured rat hepatocytes” (1997).

How the values were obtained:
Type in all cases: functional
Rattus norvegicus [1] = species on record: Rattus norvegicus; test: In vitro inhibitory effect on D-Galactosamine induced cytotoxicity in primary cultured rat hepatocytes at 0.3 ug/mL; conditions: Hepatocyte
Rattus norvegicus [2] = species on record: Rattus norvegicus; test: In vitro inhibitory effect on D-Galactosamine induced cytotoxicity in primary cultured rat hepatocytes at 10 ug/mL; conditions: Hepatocyte
Mus musculus [3] = test: Inhibitory effect on D-GalN/LPS (injected i.p. dose of 350 mg/kg and 10 ug/kg) induced hepatic injury in mice at 10 mg/kg, ip
Rattus norvegicus [4] = species on record: Rattus norvegicus; test: In vitro inhibitory effect on D-Galactosamine induced cytotoxicity in primary cultured rat hepatocytes at 3 ug/mL; conditions: Hepatocyte
Rattus norvegicus [5] = species on record: Rattus norvegicus; test: In vitro inhibitory effect on D-Galactosamine induced cytotoxicity in primary cultured rat hepatocytes at 30 ug/mL; conditions: Hepatocyte
Rattus norvegicus [6] = species on record: Rattus norvegicus; test: In vitro inhibitory effect on D-Galactosamine induced cytotoxicity in primary cultured rat hepatocytes at 1 ug/mL; conditions: Hepatocyte
Mus musculus [7] = test: Inhibitory effect on D-GalN/LPS (injected i.p. dose of 350 mg/kg and 10 ug/kg) induced hepatic injury in mice at 20 mg/kg, ip

SMILES | inhibition at 0.3 µg/mL (Rattus norvegicus [1]) | inhibition at 10 µg/mL (Rattus norvegicus [2]) | s-GOT level (Mus musculus [3]) | s-GPT level (Mus musculus [3]) | inhibition at 3 µg/mL (Rattus norvegicus [4]) | inhibition at 30 µg/mL (Rattus norvegicus [5]) | inhibition at 1 µg/mL (Rattus norvegicus [6]) | s-GOT level (Mus musculus [7]) | s-GPT level (Mus musculus [7])
C[C@H]1O[C@@H](O[C@H]2CC[C@@]3(C)C(CC[C@]4(C)C3[C@H](O)C=C3C5CC(C)(C)CC[C@]5(CO)[C@@H](O)C[C@]34C)[C@]2(C)CO)[C@H](O)[C@@H](O[C@@H]2O[C@H](CO)[C@@H](O)[C@H](O)[C@H]2O)[C@H]1O (stereo not given in full) | 6.8% | 43.1% | 1261 Karmen units | 1483 Karmen units | 35.6% | 46.5% | 16.7% |  | 
C[C@]12CCC(=O)C=C1CCC1[C@@H]2[C@@H](O)C[C@@]2(C)[C@H]1CC[C@]2(O)C(=O)CO (single isomer, unassigned) [HYDROCORTISONE] |  |  |  |  |  |  |  | 331 Karmen units | 202 Karmen units
C[C@H]1O[C@@H](O[C@H]2CC[C@@]3(C)C(CC[C@]4(C)C3[C@H](O)CC3C5=CC(C)(C)CC[C@]5(CO)[C@@H](O)C[C@]34C)[C@]2(C)CO)[C@H](O)[C@@H](O[C@@H]2O[C@H](CO)[C@@H](O)[C@H](O)[C@H]2O)[C@H]1O (stereo not given in full) | 15.8% | 69.5% | 1209 Karmen units | 1265 Karmen units | 59.4% | 64.7% | 39.7% |  | 
C[C@H]1O[C@@H](O[C@H]2CC[C@@]3(C)C(CC[C@]4(C)C3C(=O)C=C3C5CC(C)(C)CC[C@]5(CO)[C@@H](O)C[C@]34C)[C@]2(C)CO)[C@H](O)[C@@H](O[C@@H]2O[C@H](CO)[C@@H](O)[C@H](O)[C@H]2O)[C@H]1O (stereo not given in full) | 5.5% | 72.8% | 7211 Karmen units | 7887 Karmen units | 44.5% | 90.9% | 16.9% | 1404 Karmen units | 1530 Karmen units
